In article PMC5397431, “Multigeneration toxicity of imidacloprid and thiacloprid to Folsomia candida” (Ecotoxicology (London, England), 2017):

Tests used:
[1] = Chemical analysis of concentrations in test soil (LC-MS) and degradation half-life (DT50); format: physicochemical
Protocol: Soil samples for chemical analysis of imidacloprid and thiacloprid in the test soil were taken at the start of the exposure of each new generation.
The analytical method to determine actual imidacloprid and thiacloprid concentrations in the test soils followed the principles of the QuEChERS extraction method modified from Anastasiades et al. ([2003]) and Payá et al. ([2007]). Briefly, the procedure used was as follows: approx. 1 g moist soil was taken for low concentration treatments (<1 mg/kg), and 50 µL internal standard (Imidacloprid-d4 and Thiacloprid-d4, 250 µg/L) was added. The sample was shaken for 20 min at 250 rpm with 2 mL methanol and centrifuged for 3 min at 1500 rpm. The methanol phase was passed through a granular Na2SO4 column, evaporated till dryness and the residue taken up in 3 mL acetonitrile. For high concentration samples (>1 mg/kg), the soil was first shaken with methanol and centrifuged. Subsequently an aliquot of 100 µL was taken and together with 50 µL internal standard (Imidacloprid-d4 and Thiacloprid-d4, 250 µg/L) added to 1 mL methanol, passed through a granular Na2SO4 column, evaporated to dryness and taken up in 3 mL acetonitrile. For clean-up, the acetonitrile extract was added to a tube filled with Supel QuE (C18 150 mg, PSA 150 mg, MgSO4 900 mg, Sigma Aldrich), shaken by hand for 2 min and centrifuged for 3 min at 3000 rpm. The supernatant was evaporated till dryness under gentle nitrogen stream and the residue taken up in 200 µL of a water-methanol (9/1) mixture.
Extracts were analyzed using LC-MS and quantified by isotope dilution (imidacloprid-d4 and thiacloprid-d4). The neonicotinoids were separated on a 100 × 2.1 mm, 2.6 µm Kinetex XB-C18 column (Phenomenex), applying a gradient of 5 mM ammonium formate pH 4 buffer and methanol, at a flow rate of 0.3 mL/min. The LC system (Agilent 1200 series) was coupled to a 6410 triple quadrupole MS (Agilent) using electrospray ionization (ESI) with data acquisition in positive ion mode. The transitions for imidacloprid were 256.1 > 175/209 (quantifier/qualifier) and for imidacloprid-d4 260 > 179. For thiacloprid the transitions were253.1 > 126/90 (quantifier/qualifier) with 257 > 126 for thiacloprid-d4.
Using data on the imidacloprid and thiacloprid concentrations measured at different times after spiking the soil in the multigeneration test, half-life (DT50) values were estimated assuming first order degradation kinetics. The equation C = C0 * e^−k*t was fitted to the data, with C = concentration at time t in days, C0 is concentration at t = 0 and k = degradation rate constant (day^−1). DT50 was derived as ln(2) / k.

[2] = test system: honeybees; parameters: method as in Iwasa et al. (2004); conditions: acute dermal exposure; ref Iwasa et al. (2004); cited from earlier work

## O=[N+]([O-])NC1=NCCN1Cc1ccc(Cl)nc1 [Imidacloprid, imidacloprid]
[1]; LUFA 2.2 soil, after 28 days of incubation at 20 °C, all concentrations analysed
  concentration, % of the nominal concentration: 68.1–83.8%
[1]; LUFA 2.2 soil, start of F0 exposure (T=0)
  recovery, % of the nominal concentration: 77.6–89.9%
[1]; T=0, nominal 0.01, mean ± SD (n=3)
  concentration measured in soil: 0.0078±0.0028 mg/kg dry soil
[1]; T=0, nominal 0.1, mean ± SD (n=3)
  concentration measured in soil: 0.082±0.0018 mg/kg dry soil
[1]; T=0, nominal 0.3, mean ± SD (n=3)
  concentration measured in soil: 0.27±0.014 mg/kg dry soil
[1]; T=0, nominal 1.0, mean ± SD (n=3)
  concentration measured in soil: 0.86±0.022 mg/kg dry soil
[1]; T=28 d, nominal 0.1, mean ± SD (n=3)
  concentration measured in soil: 0.068±0.0025 mg/kg dry soil
[1]; T=28 d, nominal 0.3, mean ± SD (n=3)
  concentration measured in soil: 0.23±0.0092 mg/kg dry soil
[1]; T=28 d, nominal 1.0, mean ± SD (n=3)
  concentration measured in soil: 0.84±0.083 mg/kg dry soil
[1]; pH 5.4
  half-life: ≥ 125 days
[2]
  times more toxic than thiacloprid: about 800 times
